Laboratory results from patent US7105576B2, “Synergistic effects of nuclear transcription factor NF-κB inhibitors and anti-neoplastic agents” (priority 2002, dated 2006).

Columns and labels:
NF-κB [1] = experiment: EMSA of paclitaxel-induced NF-κB activation in MCF-7 cells; format: cell-based, human; conditions: curcumin pretreatment 2 h, then taxol 30 μM 12 hrs, EMSA of nuclear extract
Description: Nuclear extract was prepared and EMSA performed using 8 μg of nuclear protein. […] The nuclear extracts were prepared and analyzed by EMSA. The specificity of NF-κB can be examined by supershift analysis using antibodies against p50 and p65 subunits of NF-κB as described (109).

NF-κB [2] = experiment: EMSA of TNF-dependent NF-κB activation in MDA-MB 435 cells; format: cell-based, human; conditions: curcumin 0 to 50 μM 4 h, then 0.1 nM TNF 30 min
Description: MCF-7 cells treated with 0 and 0.1 nM TNF was included as negative and positive control. […] The nuclear extracts were prepared and analyzed by EMSA. The specificity of NF-κB can be examined by supershift analysis using antibodies against p50 and p65 subunits of NF-κB as described (109).

MCF-7 cells = experiment: Cell viability by the MTT method; format: cell-based, human; conditions: taxol 10 μM with or without curcumin 10 μM, 72 h
[3] = test system: MDA-MB-435 breast cancer cells; experiment: Breast cancer metastasis after primary tumor removal, mammary fatpad xenograft; format: in vivo, female nude mice; conditions: for Incidence of macroscopic lung metastases / Median range of mets: 5 weeks after tumor removal; for Incidence of macroscopic lung metastases: paclitaxel 10 mg/kg i.p. day 10, 17, 24, 2% curcumin (w/w) diet; for Mean tumor Weight: MDA-MB-435 mammary fatpad tumors in nude mice; for Mean tumor Weight / Median range of mets: paclitaxel 10 mg/kg i.p., 2% curcumin diet; for Median range of mets: number of macroscopic lung metastases
Description: Human breast cancer cells (MDA-MB-231 or MDA-MB-435) that express constitutively active NF-κB can be injected into the mammary fatpad of female nude mice as previously described (127). […] Two millions MDA-MB-435 breast cancer cells were injected into the mammary fatpad of female nude mice. […] The treatment continue for up to 5 weeks after tumor removal, at which time the mice were killed and the number of visible metastases and presence of recurrent tumors or metastases in other organs were recorded. The lungs were fixed in 10% buffered formalin and paraffin-embedded section were stained with H&E to determine the incidence of micrometastases, or with antibodies recognizing the p65 subunit of NF-κB and HER2/neu. […] The significance of differences in the incidence of lung metastasis in the different groups was assessed using Fisher's exact test.

[4] = test system: BT20, SKBR3, MCF-7, T47D, and ZR75-1; conditions: reference 63; cited from earlier work

With `COc1cc(/C=C/C(=O)CC(=O)/C=C/c2ccc(O)c(OC)c2)ccc1O` [Curcumin, diferuloylmethane] the “paclitaxel-induced NF-κB induction” value (NF-κB [1]) was “downregulated paclitaxel-induced NF-κB induction in MCF-7 cells in a dose dependent manner”, the “TNF-dependent NF-κB activation” value (NF-κB [2]) was “inhibited TNF-dependent NF-κB activation” and the “cytotoxic effects of paclitaxel (cell viability, MTT)” value (MCF-7 cells) was “enhances the cytotoxic effects of paclitaxel”. The “Incidence of macroscopic lung metastases” value [3] was 71%, the “Mean tumor Weight” value [3] was 0.71 ± 0.3 g and the “effect on breast cancer metastases to the lung” value ([3]; mouse xenograft model, Table 1 and FIG. 5) was “enhances the effect of paclitaxel and suppresses breast cancer metastases to the lung”. The “Median range of mets” value [3] was 5 (0–44) and the “Growth of breast tumor cell lines” value [4] was “completely inhibited”.
In the case of `CC(=O)O[C@H]1C(=O)[C@@]2(C)[C@H]([C@H](OC(=O)c3ccccc3)[C@]3(O)C[C@H](OC(=O)[C@H](O)[C@@H](NC(=O)c4ccccc4)c4ccccc4)C(C)=C1C3(C)C)[C@]1(OC(C)=O)CO[C@@H]1C[C@@H]2O` [paclitaxel, Paclitaxel], the “Incidence of macroscopic lung metastases” value [3] is reported as 83%, the “Mean tumor Weight” value [3] is reported as 0.74 ± 0.4 g and the “Median range of mets” value [3] is reported as 20 (0–>100).
